Values quoted from earlier work in PMC9851200, “Multiparameter phenotypic screening for endogenous TFEB and TFE3 translocation identifies novel chemical series modulating lysosome function” (Autophagy, 2022).

How the values were obtained:
Set-up in all cases: method as in original PKIS2 published data
[1] = biological target: kinases (KINOMEscan panel) (Homo sapiens, UniProt Q9H4B4); conditions: kinase PLK3; Published KINOMEscan; ref original PKIS2 published data; cited from earlier work
[2] = biological target: kinases (KINOMEscan panel) (Homo sapiens, UniProt Q8NEV4); conditions: kinase MYO3A; Published KINOMEscan; ref original PKIS2 published data; cited from earlier work
[3] = biological target: kinases (KINOMEscan panel) (Homo sapiens, UniProt Q13627); conditions: Published KINOMEscan; ref original PKIS2 published data; cited from earlier work
[4] = biological target: kinases (KINOMEscan panel) (Homo sapiens, UniProt P49137); conditions: kinase MAPKAPK2; Published KINOMEscan; ref original PKIS2 published data; cited from earlier work
[5] = biological target: kinases (KINOMEscan panel) (Homo sapiens, UniProt P21860); conditions: ERBB3; Published KINOMEscan; ref original PKIS2 published data; cited from earlier work
[6] = biological target: kinases (KINOMEscan panel) (Homo sapiens, UniProt Q9UQM7); conditions: kinase CAMK2A; Published KINOMEscan; ref original PKIS2 published data; cited from earlier work
[7] = biological target: T1, kinases (KINOMEscan panel) (Homo sapiens, UniProt O75747); conditions: Published KINOMEscan; ref original PKIS2 published data; cited from earlier work
T1 sequence (O75747 1-1486): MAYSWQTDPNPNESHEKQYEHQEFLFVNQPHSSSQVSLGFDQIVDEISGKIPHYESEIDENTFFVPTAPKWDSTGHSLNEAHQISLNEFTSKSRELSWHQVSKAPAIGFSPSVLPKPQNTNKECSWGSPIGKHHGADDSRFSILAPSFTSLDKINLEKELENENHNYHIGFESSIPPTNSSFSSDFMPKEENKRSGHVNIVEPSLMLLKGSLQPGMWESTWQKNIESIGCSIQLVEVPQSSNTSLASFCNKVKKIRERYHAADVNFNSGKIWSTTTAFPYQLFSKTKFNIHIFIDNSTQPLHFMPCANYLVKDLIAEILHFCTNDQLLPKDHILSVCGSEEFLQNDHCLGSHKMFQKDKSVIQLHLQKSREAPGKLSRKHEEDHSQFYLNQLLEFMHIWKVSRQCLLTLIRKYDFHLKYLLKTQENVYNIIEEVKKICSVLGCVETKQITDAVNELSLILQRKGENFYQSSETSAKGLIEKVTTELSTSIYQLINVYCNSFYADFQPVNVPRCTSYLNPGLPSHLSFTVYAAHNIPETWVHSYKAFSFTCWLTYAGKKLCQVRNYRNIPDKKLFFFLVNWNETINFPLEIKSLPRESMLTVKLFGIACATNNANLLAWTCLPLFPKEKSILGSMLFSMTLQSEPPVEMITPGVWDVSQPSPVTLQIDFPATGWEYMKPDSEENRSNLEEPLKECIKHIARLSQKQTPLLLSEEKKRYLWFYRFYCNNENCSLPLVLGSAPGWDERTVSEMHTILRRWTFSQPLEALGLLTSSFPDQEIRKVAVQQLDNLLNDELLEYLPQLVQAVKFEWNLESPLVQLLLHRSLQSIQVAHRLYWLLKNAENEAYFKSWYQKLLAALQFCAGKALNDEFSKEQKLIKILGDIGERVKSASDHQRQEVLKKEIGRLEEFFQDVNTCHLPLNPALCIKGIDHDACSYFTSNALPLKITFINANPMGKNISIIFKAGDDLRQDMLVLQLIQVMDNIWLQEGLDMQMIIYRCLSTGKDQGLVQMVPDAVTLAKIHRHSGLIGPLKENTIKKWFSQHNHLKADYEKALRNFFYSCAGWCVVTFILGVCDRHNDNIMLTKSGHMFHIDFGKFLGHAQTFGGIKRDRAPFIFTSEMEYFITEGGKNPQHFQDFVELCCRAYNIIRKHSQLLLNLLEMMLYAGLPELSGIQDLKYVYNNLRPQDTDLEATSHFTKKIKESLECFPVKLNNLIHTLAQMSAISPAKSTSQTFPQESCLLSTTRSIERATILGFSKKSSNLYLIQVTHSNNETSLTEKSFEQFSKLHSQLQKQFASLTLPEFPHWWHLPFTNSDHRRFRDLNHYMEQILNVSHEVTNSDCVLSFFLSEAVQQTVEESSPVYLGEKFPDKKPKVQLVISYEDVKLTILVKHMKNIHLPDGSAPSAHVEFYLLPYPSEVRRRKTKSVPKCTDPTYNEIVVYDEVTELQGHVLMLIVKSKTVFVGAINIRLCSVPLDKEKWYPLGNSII

[8] = biological target: kinases (KINOMEscan panel) (Homo sapiens, UniProt P53355); conditions: kinase DAPK1; Published KINOMEscan; ref original PKIS2 published data; cited from earlier work
[9] = biological target: kinases (KINOMEscan panel) (Homo sapiens, UniProt Q96NX5); conditions: CAMK1G; Published KINOMEscan; ref original PKIS2 published data; cited from earlier work
[10] = biological target: T2, kinases (KINOMEscan panel) (Homo sapiens, UniProt P51955); conditions: kinase NEK2; Published KINOMEscan; ref original PKIS2 published data; cited from earlier work
T2 sequence (P51955 1-445): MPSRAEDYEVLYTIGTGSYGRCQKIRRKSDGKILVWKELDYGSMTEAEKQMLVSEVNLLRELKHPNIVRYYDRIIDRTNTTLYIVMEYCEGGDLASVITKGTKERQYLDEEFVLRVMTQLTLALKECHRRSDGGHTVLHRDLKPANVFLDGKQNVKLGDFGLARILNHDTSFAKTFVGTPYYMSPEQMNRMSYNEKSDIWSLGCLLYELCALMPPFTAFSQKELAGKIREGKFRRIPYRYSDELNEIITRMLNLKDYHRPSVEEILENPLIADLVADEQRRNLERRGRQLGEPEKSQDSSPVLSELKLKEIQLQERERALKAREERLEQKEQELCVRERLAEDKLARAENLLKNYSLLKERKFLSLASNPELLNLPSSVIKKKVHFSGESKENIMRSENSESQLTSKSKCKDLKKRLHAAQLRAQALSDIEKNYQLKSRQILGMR

Sequence of kinases (KINOMEscan panel) (Homo sapiens, UniProt P49137) (P49137 whole entry): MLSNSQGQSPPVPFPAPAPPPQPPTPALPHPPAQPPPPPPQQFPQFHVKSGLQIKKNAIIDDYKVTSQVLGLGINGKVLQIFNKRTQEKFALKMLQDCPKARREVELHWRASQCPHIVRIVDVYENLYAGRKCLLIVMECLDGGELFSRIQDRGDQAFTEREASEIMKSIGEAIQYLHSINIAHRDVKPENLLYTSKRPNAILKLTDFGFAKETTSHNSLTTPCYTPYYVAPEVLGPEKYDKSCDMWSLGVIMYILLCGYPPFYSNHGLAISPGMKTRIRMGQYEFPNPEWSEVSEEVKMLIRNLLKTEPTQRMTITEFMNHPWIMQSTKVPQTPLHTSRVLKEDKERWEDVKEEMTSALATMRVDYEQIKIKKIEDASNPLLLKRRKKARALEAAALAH
Sequence of kinases (KINOMEscan panel) (Homo sapiens, UniProt Q9UQM7) (Q9UQM7 whole entry): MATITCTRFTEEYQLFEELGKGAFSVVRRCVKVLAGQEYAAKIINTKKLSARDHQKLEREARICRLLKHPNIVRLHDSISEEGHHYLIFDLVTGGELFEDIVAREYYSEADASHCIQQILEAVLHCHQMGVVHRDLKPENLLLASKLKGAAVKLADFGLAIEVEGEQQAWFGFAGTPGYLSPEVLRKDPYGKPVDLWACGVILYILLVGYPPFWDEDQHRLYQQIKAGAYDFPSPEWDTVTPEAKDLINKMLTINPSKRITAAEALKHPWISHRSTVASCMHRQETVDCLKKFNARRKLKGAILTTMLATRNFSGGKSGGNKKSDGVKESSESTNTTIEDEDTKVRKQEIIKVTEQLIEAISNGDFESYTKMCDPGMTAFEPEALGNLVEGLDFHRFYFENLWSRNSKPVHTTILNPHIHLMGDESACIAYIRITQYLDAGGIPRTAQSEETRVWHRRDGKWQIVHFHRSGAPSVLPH
Sequence of kinases (KINOMEscan panel) (Homo sapiens, UniProt Q96NX5) (Q96NX5 whole entry): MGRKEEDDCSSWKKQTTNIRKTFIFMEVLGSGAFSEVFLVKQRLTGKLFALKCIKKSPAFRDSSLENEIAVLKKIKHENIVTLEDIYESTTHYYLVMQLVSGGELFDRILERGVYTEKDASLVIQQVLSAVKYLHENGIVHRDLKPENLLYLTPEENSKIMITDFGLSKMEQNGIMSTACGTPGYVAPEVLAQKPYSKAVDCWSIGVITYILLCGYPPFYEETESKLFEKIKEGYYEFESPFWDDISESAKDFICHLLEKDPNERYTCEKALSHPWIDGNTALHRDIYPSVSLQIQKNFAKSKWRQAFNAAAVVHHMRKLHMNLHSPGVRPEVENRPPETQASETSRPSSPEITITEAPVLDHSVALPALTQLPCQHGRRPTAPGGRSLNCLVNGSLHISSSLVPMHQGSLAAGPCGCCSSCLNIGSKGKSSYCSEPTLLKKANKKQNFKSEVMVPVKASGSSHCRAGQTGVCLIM
Sequence of kinases (KINOMEscan panel) (Homo sapiens, UniProt Q8NEV4) (Q8NEV4 whole entry): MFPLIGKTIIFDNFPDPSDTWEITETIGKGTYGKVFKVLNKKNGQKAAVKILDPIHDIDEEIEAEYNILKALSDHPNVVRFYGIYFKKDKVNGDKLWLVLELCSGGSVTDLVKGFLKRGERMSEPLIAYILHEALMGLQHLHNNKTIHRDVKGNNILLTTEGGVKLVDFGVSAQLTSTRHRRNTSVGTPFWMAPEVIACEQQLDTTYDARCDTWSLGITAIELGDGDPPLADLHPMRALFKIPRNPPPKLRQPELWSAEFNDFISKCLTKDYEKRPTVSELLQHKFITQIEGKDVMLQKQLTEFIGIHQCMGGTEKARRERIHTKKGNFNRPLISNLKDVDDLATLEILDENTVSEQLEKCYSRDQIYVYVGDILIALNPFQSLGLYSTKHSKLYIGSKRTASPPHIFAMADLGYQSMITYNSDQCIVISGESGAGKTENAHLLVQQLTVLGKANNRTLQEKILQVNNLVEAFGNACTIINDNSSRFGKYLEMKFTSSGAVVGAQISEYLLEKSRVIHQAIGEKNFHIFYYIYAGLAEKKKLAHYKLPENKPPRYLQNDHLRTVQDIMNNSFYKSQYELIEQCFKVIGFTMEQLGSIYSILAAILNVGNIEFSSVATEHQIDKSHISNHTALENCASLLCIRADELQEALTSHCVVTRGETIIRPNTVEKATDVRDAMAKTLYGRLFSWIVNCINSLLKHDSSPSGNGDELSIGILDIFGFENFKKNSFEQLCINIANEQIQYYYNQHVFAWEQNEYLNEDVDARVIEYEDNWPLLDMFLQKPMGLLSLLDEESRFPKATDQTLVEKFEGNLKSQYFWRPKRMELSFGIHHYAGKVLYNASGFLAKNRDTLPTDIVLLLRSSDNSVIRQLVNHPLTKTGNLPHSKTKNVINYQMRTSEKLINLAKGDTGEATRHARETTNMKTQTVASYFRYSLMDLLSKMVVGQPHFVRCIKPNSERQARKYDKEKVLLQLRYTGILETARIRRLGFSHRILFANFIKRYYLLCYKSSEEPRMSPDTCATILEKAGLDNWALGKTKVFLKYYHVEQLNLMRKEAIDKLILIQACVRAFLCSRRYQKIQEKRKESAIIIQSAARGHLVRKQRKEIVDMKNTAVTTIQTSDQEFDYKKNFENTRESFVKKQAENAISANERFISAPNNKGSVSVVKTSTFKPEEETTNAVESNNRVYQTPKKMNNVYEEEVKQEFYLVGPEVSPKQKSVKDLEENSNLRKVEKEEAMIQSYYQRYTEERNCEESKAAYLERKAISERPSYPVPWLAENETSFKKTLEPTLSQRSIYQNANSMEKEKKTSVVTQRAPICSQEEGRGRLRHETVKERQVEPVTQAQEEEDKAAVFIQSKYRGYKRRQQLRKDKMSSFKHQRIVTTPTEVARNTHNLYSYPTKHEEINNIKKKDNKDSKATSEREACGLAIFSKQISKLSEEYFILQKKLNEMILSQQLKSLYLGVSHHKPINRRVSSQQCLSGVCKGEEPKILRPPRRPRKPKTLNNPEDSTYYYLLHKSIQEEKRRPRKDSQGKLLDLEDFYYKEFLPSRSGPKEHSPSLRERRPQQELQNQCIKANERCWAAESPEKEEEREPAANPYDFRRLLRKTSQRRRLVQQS
Sequence of kinases (KINOMEscan panel) (Homo sapiens, UniProt Q9H4B4) (Q9H4B4 whole entry): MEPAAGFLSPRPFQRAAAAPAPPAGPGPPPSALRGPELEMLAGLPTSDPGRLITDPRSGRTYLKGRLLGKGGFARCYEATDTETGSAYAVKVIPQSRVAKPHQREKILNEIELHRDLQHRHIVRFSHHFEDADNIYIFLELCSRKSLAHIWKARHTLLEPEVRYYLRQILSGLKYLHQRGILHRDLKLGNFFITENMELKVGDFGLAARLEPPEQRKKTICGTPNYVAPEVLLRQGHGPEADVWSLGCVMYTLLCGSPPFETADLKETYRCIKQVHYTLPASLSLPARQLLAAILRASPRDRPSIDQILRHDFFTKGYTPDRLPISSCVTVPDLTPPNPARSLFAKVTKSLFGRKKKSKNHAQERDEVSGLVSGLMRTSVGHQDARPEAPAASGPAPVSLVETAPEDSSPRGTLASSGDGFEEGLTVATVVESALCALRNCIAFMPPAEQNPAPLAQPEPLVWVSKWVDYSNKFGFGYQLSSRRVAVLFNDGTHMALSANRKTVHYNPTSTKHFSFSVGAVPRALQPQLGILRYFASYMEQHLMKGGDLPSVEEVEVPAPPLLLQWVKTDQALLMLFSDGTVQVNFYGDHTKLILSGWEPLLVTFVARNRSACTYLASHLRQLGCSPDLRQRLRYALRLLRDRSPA
Sequence of kinases (KINOMEscan panel) (Homo sapiens, UniProt P21860) (P21860 20-1342): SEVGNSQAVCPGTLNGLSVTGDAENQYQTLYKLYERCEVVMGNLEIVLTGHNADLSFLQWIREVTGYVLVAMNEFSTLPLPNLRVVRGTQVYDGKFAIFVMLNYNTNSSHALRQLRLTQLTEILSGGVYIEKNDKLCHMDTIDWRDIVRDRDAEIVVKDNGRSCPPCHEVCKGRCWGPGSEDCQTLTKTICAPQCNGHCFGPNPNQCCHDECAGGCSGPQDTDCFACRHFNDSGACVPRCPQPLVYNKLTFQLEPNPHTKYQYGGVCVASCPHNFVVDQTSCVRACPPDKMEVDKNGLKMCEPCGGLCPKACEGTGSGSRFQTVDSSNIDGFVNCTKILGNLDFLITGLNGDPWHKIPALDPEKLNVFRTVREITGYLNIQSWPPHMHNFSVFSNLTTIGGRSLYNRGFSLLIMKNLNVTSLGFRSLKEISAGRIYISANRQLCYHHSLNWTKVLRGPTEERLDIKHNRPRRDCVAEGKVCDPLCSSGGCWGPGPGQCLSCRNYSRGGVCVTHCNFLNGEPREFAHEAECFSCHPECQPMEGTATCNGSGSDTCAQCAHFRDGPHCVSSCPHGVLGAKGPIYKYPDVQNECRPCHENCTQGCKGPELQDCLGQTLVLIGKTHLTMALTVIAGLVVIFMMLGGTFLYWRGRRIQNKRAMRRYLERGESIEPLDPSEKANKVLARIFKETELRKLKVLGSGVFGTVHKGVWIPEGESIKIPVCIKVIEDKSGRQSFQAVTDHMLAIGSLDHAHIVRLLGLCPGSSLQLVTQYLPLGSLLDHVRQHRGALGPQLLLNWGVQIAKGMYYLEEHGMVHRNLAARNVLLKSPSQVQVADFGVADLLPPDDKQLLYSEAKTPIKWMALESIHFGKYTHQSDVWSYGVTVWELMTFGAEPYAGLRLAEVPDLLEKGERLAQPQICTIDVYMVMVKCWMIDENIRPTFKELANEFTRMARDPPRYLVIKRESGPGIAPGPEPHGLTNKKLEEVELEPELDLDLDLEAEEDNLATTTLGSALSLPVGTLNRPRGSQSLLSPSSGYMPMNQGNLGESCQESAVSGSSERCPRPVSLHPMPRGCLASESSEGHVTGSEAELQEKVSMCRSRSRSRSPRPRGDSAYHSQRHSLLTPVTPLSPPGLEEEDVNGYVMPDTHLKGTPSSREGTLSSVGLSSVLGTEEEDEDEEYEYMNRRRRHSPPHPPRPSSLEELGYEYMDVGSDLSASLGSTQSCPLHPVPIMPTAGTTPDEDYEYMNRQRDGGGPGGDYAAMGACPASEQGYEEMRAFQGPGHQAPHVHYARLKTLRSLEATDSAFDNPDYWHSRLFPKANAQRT

For Cc1cccc(-c2nc(Nc3ccncc3)c3ccccc3n2)n1 [NK215], the “KINOMEscan PLK3” value [1] is given as 0, the “KINOMEscan MYO3A” value [2] is given as 0 and the “KINOMEscan DYRK1A” value [3] is given as 0. For the same compound, the “KINOMEscan MAPKAPK2” value [4] was 0, the “KINOMEscan ERBB3” value [5] was 43 and the “KINOMEscan CAMK2A” value [6] was 6. For the same compound, the “KINOMEscan PIK3C2G” value [7] was 0, the “KINOMEscan DAPK1” value [8] was 0 and the “KINOMEscan CAMK1G” value [9] was 0. For the same compound, the “KINOMEscan NEK2” value [10] was 0.
